Legend:
Test in all cases: Eurofins kinase profiling
Format in all cases: biochemical
EphA7(h) = target: T1, EphA7(h) (Homo sapiens, UniProt Q15375); conditions: read-out: residual kinase activity EphA7(h)
T1 construct: purchased Eurofins KinaseProfiler
Procedure, shortened: (§1)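 Radiometric detection, with radiolabeled phosphate as substrate, gave the kinase activity after each enzyme was incubated with 1 µM test compound. The run belonged to a 110-assay profiling panel.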

DYRK2(h) = target: T2, DYRK2(h) (Homo sapiens, UniProt Q92630); conditions: read-out: residual kinase activity DYRK2(h)
T2 construct: purchased Eurofins KinaseProfiler
T2 sequence (Q92630 1-601): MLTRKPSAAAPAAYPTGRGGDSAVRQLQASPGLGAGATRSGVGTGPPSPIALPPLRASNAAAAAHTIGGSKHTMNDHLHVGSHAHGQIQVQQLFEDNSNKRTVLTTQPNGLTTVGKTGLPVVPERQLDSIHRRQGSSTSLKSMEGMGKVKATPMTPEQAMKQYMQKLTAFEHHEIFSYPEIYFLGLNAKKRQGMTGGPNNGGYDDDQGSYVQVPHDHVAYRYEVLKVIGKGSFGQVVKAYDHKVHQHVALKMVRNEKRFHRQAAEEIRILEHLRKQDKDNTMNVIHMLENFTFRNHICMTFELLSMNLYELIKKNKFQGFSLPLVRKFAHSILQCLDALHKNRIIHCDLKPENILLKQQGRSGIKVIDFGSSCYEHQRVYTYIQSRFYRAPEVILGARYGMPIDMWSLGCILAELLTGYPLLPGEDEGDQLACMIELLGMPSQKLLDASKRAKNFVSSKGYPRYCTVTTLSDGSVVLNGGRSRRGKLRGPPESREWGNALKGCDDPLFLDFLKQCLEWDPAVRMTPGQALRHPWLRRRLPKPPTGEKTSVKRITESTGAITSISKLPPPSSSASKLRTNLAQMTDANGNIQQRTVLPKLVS
Procedure, shortened: as §1

EGFR(h) = target: T3, EGFR(h) (Homo sapiens, UniProt P00533); conditions: read-out: residual kinase activity EGFR(h)
T3 construct: purchased Eurofins KinaseProfiler
Procedure, shortened: as §1

KDR(h) = target: T4, KDR(h) (Homo sapiens, UniProt P35968); conditions: read-out: residual kinase activity KDR(h)
T4 construct: purchased Eurofins KinaseProfiler
Procedure, shortened: as §1

EphA2(h) = target: T5, EphA2(h) (Homo sapiens, UniProt P29317); conditions: read-out: residual kinase activity EphA2(h)
T5 construct: purchased Eurofins KinaseProfiler
Procedure, shortened: as §1

PDK1(h) = target: T6, PDK1(h) (Homo sapiens, UniProt O15530); conditions: read-out: residual kinase activity PDK1(h)
T6 construct: purchased Eurofins KinaseProfiler
T6 sequence (O15530 1-556): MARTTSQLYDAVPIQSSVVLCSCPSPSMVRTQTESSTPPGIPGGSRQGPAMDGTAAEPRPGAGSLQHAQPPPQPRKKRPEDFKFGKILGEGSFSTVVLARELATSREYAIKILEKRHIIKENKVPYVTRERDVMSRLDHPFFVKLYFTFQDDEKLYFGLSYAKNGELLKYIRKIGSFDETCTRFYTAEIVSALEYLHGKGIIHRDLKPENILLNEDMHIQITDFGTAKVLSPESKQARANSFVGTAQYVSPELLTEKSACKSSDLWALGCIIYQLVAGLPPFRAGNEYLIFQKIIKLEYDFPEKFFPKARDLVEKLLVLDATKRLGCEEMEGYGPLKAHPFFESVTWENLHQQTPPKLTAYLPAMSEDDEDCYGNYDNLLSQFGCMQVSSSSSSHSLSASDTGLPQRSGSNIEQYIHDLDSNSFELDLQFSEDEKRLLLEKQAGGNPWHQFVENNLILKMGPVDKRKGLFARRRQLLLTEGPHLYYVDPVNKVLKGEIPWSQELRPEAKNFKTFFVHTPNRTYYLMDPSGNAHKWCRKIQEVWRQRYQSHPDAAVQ
Procedure, shortened: as §1

Fms(h) = target: T7, Fms(h) (Homo sapiens, UniProt P07333); conditions: read-out: residual kinase activity Fms(h)
T7 construct: purchased Eurofins KinaseProfiler
Procedure, shortened: as §1

BRK(h) = target: T8, BRK(h) (Homo sapiens, UniProt Q13882); conditions: read-out: residual kinase activity BRK(h)
T8 construct: purchased Eurofins KinaseProfiler
Procedure, shortened: as §1

CK1γ2(h) = target: T9, CK1γ2(h) (Homo sapiens, UniProt P78368); conditions: read-out: residual kinase activity CK1γ2(h)
T9 construct: purchased Eurofins KinaseProfiler
Procedure, shortened: as §1

ARK5(h) = target: T10, ARK5(h) (Homo sapiens, UniProt O60285); conditions: read-out: residual kinase activity ARK5(h)
T10 construct: purchased Eurofins KinaseProfiler
T10 sequence (O60285 1-661): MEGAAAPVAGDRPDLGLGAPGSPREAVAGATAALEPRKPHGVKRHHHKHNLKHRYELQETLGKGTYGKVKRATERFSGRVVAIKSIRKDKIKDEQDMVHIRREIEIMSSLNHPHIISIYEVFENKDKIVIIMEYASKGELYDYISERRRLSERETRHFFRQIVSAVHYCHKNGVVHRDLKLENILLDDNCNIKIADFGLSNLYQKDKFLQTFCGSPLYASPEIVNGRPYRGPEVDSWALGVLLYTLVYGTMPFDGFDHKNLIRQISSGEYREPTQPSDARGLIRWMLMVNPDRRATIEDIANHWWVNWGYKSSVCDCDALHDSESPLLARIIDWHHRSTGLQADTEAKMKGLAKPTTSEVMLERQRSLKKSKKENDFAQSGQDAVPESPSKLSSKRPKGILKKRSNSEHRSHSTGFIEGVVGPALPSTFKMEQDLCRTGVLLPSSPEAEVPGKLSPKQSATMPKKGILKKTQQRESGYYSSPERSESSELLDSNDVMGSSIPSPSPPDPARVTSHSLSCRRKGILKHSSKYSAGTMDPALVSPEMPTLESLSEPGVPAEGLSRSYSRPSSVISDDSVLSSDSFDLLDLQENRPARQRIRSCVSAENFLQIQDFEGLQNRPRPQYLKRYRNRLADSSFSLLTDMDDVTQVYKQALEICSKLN
Procedure, shortened: as §1

PAK4(h) = target: T11, PAK4(h) (Homo sapiens, UniProt O96013); conditions: read-out: residual kinase activity PAK4(h)
T11 construct: purchased Eurofins KinaseProfiler
Procedure, shortened: as §1

ATM(h) = target: T12, ATM(h) (Homo sapiens, UniProt Q13315); conditions: read-out: residual kinase activity ATM(h)
T12 construct: purchased Eurofins KinaseProfiler
Procedure, shortened: as §1

T12 sequence (Q13315 whole entry): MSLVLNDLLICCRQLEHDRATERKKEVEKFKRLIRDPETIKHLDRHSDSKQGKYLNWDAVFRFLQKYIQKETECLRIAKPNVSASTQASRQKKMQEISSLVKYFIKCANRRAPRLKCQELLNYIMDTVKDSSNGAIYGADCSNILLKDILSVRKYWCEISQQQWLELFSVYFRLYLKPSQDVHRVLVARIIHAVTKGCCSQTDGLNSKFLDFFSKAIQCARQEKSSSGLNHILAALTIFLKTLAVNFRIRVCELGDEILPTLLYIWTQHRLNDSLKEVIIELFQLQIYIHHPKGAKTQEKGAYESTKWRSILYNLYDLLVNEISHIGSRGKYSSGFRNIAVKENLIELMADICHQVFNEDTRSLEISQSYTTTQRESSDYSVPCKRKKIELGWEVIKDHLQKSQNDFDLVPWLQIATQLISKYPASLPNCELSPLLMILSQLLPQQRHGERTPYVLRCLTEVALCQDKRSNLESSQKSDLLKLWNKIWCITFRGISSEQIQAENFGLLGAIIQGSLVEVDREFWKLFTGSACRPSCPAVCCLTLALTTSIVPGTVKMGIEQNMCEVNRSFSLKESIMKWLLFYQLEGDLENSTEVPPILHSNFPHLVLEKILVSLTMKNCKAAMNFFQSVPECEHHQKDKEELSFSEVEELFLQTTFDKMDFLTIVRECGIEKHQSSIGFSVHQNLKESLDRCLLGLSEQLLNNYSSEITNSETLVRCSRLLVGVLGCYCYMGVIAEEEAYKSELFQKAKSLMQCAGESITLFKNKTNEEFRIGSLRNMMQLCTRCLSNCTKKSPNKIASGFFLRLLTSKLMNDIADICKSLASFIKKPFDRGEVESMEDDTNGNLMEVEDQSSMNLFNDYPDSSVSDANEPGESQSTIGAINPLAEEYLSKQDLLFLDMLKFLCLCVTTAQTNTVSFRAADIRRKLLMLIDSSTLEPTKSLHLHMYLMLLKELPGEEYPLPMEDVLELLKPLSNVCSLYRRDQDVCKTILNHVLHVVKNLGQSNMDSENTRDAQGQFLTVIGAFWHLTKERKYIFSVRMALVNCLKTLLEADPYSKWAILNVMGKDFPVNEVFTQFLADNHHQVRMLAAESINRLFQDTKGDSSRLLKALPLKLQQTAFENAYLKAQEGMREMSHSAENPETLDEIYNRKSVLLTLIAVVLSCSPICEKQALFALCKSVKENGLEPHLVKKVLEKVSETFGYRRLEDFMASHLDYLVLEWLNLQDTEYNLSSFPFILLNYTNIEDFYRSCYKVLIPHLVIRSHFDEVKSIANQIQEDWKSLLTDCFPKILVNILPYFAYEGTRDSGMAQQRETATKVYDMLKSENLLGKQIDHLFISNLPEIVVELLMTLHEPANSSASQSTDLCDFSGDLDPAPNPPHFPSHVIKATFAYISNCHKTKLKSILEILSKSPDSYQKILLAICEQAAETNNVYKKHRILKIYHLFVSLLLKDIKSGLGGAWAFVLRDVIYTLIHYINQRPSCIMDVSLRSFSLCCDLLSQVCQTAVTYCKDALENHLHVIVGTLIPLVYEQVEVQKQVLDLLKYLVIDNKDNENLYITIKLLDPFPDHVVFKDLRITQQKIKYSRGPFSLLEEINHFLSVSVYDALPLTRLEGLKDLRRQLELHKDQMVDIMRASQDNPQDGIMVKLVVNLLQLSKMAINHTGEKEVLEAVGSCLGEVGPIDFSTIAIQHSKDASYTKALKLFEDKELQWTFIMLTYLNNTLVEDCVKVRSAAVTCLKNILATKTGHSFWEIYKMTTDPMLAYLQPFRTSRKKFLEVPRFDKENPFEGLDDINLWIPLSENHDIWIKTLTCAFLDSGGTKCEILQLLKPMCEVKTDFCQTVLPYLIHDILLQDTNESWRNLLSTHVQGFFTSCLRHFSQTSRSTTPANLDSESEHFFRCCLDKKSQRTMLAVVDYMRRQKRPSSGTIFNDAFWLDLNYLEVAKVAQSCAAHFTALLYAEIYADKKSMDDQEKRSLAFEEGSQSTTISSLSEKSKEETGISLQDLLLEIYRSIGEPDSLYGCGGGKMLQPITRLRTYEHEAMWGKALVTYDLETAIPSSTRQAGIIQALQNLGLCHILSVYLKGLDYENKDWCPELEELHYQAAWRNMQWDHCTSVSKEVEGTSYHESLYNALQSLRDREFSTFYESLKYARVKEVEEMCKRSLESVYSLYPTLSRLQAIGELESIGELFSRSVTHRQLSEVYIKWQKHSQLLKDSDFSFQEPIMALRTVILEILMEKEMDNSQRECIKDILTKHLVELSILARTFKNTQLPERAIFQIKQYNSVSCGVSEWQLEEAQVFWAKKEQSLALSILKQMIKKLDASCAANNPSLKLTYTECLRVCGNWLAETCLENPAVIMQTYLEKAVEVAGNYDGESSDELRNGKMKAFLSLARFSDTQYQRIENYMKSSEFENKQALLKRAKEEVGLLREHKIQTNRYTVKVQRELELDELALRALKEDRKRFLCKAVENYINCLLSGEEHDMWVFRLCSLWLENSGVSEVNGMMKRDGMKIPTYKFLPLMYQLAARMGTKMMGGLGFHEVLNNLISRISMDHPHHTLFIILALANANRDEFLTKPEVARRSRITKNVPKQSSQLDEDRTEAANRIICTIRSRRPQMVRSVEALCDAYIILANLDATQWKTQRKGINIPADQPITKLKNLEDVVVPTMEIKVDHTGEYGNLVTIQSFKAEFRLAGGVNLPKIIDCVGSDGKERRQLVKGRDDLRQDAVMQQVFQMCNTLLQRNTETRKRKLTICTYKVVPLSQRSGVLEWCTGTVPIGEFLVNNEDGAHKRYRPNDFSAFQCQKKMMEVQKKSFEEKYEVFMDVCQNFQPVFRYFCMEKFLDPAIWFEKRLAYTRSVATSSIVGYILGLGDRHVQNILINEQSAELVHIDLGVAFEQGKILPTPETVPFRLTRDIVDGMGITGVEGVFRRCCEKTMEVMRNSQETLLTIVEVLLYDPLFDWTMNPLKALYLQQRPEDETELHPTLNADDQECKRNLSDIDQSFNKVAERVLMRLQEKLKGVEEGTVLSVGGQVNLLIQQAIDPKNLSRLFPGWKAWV
T9 sequence (P78368 whole entry): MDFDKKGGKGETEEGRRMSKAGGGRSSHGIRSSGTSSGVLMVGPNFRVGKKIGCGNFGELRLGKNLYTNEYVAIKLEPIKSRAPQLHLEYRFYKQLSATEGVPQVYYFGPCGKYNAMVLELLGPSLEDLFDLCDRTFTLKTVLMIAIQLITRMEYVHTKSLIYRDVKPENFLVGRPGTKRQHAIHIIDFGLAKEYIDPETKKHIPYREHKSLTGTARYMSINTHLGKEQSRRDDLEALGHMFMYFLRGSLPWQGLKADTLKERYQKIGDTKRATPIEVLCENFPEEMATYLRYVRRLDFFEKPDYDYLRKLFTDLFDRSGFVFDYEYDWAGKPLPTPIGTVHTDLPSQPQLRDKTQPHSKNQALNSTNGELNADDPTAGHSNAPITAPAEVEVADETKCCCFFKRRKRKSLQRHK
T3 sequence (P00533 25-1210): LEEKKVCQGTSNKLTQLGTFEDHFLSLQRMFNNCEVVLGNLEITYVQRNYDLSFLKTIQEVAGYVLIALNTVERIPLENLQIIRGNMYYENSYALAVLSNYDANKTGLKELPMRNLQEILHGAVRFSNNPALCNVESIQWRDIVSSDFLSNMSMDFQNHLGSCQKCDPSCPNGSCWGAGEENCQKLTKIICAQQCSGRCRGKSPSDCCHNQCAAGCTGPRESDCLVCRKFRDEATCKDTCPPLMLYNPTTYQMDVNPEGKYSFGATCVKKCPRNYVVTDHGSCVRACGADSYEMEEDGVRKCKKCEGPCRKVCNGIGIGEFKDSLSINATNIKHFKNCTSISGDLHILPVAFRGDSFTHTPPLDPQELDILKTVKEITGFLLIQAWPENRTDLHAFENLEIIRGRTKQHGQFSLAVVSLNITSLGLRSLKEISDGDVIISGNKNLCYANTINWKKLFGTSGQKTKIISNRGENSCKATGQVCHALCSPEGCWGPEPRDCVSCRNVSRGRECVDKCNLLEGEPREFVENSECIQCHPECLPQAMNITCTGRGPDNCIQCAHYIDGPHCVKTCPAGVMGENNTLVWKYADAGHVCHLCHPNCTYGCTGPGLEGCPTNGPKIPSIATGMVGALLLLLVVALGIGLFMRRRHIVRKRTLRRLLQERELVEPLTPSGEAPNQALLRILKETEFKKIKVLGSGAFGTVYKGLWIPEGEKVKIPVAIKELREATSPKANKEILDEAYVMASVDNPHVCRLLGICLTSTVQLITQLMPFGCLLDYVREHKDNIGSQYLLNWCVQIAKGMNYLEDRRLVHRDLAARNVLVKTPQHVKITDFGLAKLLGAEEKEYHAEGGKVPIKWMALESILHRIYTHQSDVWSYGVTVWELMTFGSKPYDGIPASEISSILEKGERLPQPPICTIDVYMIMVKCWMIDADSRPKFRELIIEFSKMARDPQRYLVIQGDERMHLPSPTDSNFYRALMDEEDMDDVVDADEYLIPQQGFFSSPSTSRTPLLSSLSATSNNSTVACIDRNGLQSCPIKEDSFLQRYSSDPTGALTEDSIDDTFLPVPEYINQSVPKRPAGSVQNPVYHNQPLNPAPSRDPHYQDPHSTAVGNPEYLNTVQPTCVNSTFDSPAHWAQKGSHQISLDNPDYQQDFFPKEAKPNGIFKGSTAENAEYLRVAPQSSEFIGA
T8 sequence (Q13882 whole entry): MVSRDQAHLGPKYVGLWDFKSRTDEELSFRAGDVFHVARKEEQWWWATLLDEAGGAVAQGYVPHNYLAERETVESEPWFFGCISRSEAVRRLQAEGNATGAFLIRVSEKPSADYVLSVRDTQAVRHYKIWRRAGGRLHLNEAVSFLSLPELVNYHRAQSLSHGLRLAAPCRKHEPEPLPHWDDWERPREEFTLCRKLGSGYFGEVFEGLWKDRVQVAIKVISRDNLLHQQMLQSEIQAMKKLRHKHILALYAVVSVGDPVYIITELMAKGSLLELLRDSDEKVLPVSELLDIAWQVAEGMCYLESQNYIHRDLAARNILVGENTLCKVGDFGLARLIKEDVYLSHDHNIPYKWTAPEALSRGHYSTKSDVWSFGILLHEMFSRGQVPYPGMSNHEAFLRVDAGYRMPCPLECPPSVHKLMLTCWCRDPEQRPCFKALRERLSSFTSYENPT

| remaining activity at 1 µM (EphA7(h)) [%] | remaining activity at 1 µM (DYRK2(h)) [%] | remaining activity at 1 µM (EGFR(h)) [%] | remaining activity at 1 µM (KDR(h)) [%] | remaining activity at 1 µM (EphA2(h)) [%] | remaining activity at 1 µM (PDK1(h)) [%] | remaining activity at 1 µM (Fms(h)) [%] | remaining activity at 1 µM (BRK(h)) [%] | remaining activity at 1 µM (CK1γ2(h)) [%] | remaining activity at 1 µM (ARK5(h)) [%] | remaining activity at 1 µM (PAK4(h)) [%] | remaining activity at 1 µM (ATM(h)) [%] | Structure (SMILES) |
| --- | --- | --- | --- | --- | --- | --- | --- | --- | --- | --- | --- | --- |
| 41 | 80 | 105 | 28 | 91 | 66 | 67 | 91 | 64 | 21 | 42 | 63 | CNC(=O)c1ccc(Nc2ncc(C(F)(F)F)c(NCc3nccnc3N(C)S(C)(=O)=O)n2)cc1 [VS-6063, Defactinib] |
| 99 | 52 | 98 | 88 | 92 | 117 | 88 | 67 | 97 | 92 | 93 | 94 | CONC(=O)c1ccccc1Nc1cc(Nc2cc(C)nn2C(C)C)ncc1Cl [GSK2256098] |

| Structure (SMILES) | remaining activity at 1 µM (EphA7(h)) [%] | remaining activity at 1 µM (DYRK2(h)) [%] | remaining activity at 1 µM (EGFR(h)) [%] | remaining activity at 1 µM (KDR(h)) [%] | remaining activity at 1 µM (EphA2(h)) [%] | remaining activity at 1 µM (PDK1(h)) [%] | remaining activity at 1 µM (Fms(h)) [%] | remaining activity at 1 µM (BRK(h)) [%] | remaining activity at 1 µM (CK1γ2(h)) [%] | remaining activity at 1 µM (ARK5(h)) [%] | remaining activity at 1 µM (PAK4(h)) [%] | remaining activity at 1 µM (ATM(h)) [%] |
| --- | --- | --- | --- | --- | --- | --- | --- | --- | --- | --- | --- | --- |
| CNC(=O)c1cccc(C)c1Nc1nc(Nc2ccc(N3CCN(C4C5CC6CC4CC(O)(C6)C5)CC3)cc2OC)ncc1C(F)(F)F (stereo not drawn) [SJP1602, 2-((2-((4-(4-((2s,5r)-5-hydroxyadamantan-2-yl)piperazin-1-yl)-2-methoxyphenyl)amino)-5-(trifluoromethyl)pyrimidin-4-yl)amino)-N,3-dimethylbenzamide] | 103 | 97 | 112 | 101 | 105 | 102 | 85 | 109 | 101 | 90 | 85 | 98 |
